Laboratory results published in ChEMBL document CHEMBL1201862, “PubChem BioAssay data set” (2004).
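Tested at 5 concentrations; 48 h exposure; 96-well plates; endpoints linearly interpolated, else capped at highest concentration. GI50 is the concentration that inhibits growth by half.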 The source made the active and inactive calls. No stated cut-off is given here; in the data, active = GI50 up to about 1.1 µM and inactive = higher.

How the values were obtained:
Test in all cases: DTP human tumour cell line panel, 48 h
SK-MEL-2 = system: SK-MEL-2
DU-145 = system: DU-145
HOP-62 = system: HOP-62
A549 = system: A549
SF-268 = system: SF-268
A498 = system: A498
U-251 = system: U-251
NCI-H226 = system: NCI-H226
HL-60 = system: HL-60
HOP-92 = system: HOP-92
OVCAR-5 = system: OVCAR-5
UACC-62 = system: UACC-62
CAKI-1 = system: CAKI-1
SNB-19 = system: SNB-19
HT-29 = system: HT-29
SF-295 = system: SF-295
SF-539 = system: SF-539

SMILES	GI50 (SK-MEL-2)	GI50 (DU-145)	GI50 (HOP-62)	GI50 (A549)	GI50 (SF-268)	GI50 (A498)	GI50 (U-251)	GI50 (NCI-H226)	GI50 (HL-60)	GI50 (HOP-92)	GI50 (OVCAR-5)	GI50 (UACC-62)	GI50 (CAKI-1)	GI50 (SNB-19)	GI50 (HT-29)	GI50 (SF-295)	GI50 (SF-539)
C#CC1(O)CCCCCCCCC2(CCCCCCCC1)OCCO2	13.7 µM (inactive)	17.3 µM (inactive)	29.7 µM (inactive)	13.9 µM (inactive)	17.3 µM (inactive)	14.7 µM (inactive)	17.1 µM (inactive)	17 µM (inactive)	13.5 µM (inactive)	17.4 µM (inactive)	22 µM (inactive)	14.8 µM (inactive)	12 µM (inactive)	18.9 µM (inactive)	18.3 µM (inactive)	19.8 µM (inactive)	18 µM (inactive)
COC(=O)CC1(O)C(C=C(C)C)C(C(=O)OC)C(=O)C(C(=O)OC)C1C(=O)OC (centres undefined)	> 100 µM (inactive)	> 100 µM (inactive)	> 100 µM (inactive)	> 100 µM (inactive)	> 100 µM (inactive)	> 100 µM (inactive)	> 100 µM (inactive)	> 100 µM (inactive)	> 100 µM (inactive)	> 100 µM (inactive)	> 100 µM (inactive)	> 100 µM (inactive)	> 100 µM (inactive)	> 100 µM (inactive)	> 100 µM (inactive)	> 100 µM (inactive)	> 100 µM (inactive)
CC(C)(C)OC(=O)NC(Cc1ccccc1)C(=O)OCN1C(=O)C2C3C=CC(C2C1=O)C1C2C(=O)N(COC(=O)C(Cc4ccccc4)NC(=O)OC(C)(C)C)C(=O)C2C31 (centres undefined)	29.8 µM (inactive)	41.6 µM (inactive)	30.4 µM (inactive)	8.28 µM (inactive)	38.5 µM (inactive)	25.9 µM (inactive)	41.2 µM (inactive)	29.4 µM (inactive)	30.7 µM (inactive)	86.5 µM (inactive)	53.3 µM (inactive)	44.8 µM (inactive)	27.5 µM (inactive)	34.3 µM (inactive)	12.9 µM (inactive)	34.4 µM (inactive)	42.4 µM (inactive)
Cc1cc2c(cc1-c1cc3c(cc1C)C(C(C)C)=C(O)C(=O)/C3=C\Nc1nc(-c3ccccc3)cs1)/C(=C/Nc1nc(-c3ccccc3)cs1)C(=O)C(O)=C2C(C)C	21 µM (inactive)	23.7 µM (inactive)	15.2 µM (inactive)	19.1 µM (inactive)	24.6 µM (inactive)	35.6 µM (inactive)	14.4 µM (inactive)	22.2 µM (inactive)	25.7 µM (inactive)	18.8 µM (inactive)	> 10 µM (inactive)	16.7 µM (inactive)	35.7 µM (inactive)	17.1 µM (inactive)	22.2 µM (inactive)	15.6 µM (inactive)	18.2 µM (inactive)
COc1cccc(C2c3cc4c(cc3OC(NNS(=O)(=O)c3ccc(C)cc3)C2C)OCO4)c1O (centres undefined)	17.4 µM (inactive)	30.5 µM (inactive)	22.3 µM (inactive)	18.6 µM (inactive)	41.9 µM (inactive)	25.5 µM (inactive)	22.3 µM (inactive)	27.9 µM (inactive)	18 µM (inactive)	33.8 µM (inactive)	52.4 µM (inactive)	22 µM (inactive)	24.2 µM (inactive)	28.3 µM (inactive)	17.9 µM (inactive)	20.8 µM (inactive)	21.6 µM (inactive)
C/C=C(/C)C(=O)O[C@H]1[C@H]2[C@@H]([C@@H](OC(C)=O)[C@H](C)C(=O)[C@@]34C[C@@H](C)C(=O)[C@]3(/C=C(\C)[C@H]1OC(C)=O)O4)C2(C)C	4.27 µM (inactive)	1.66 µM (inactive)	3.15 µM (inactive)	–	5.98 µM (inactive)	4.75 µM (inactive)	5.7 µM (inactive)	3.51 µM (inactive)	0.305 µM (active)	3.08 µM (inactive)	3.94 µM (inactive)	3.35 µM (inactive)	4.42 µM (inactive)	4.32 µM (inactive)	–	3.89 µM (inactive)	3.1 µM (inactive)
CC[C@@H]1CC[C@@H]2[C@H](CC[C@]3(C)[C@@H](O)CC[C@@H]23)[C@H]1CO	> 100 µM (inactive)	> 100 µM (inactive)	> 100 µM (inactive)	> 100 µM (inactive)	> 100 µM (inactive)	> 100 µM (inactive)	> 100 µM (inactive)	> 100 µM (inactive)	23.3 µM (inactive)	> 100 µM (inactive)	> 100 µM (inactive)	79.8 µM (inactive)	> 100 µM (inactive)	> 100 µM (inactive)	39.3 µM (inactive)	77.3 µM (inactive)	> 100 µM (inactive)
COc1ccc2nc3c4c(nccc4c2c1)-c1ncccc1C3=O	0.376 µM (active)	0.00927 µM (active)	0.0193 µM (active)	0.113 µM (active)	0.0826 µM (active)	0.0916 µM (active)	0.0319 µM (active)	0.0622 µM (active)	0.0217 µM (active)	0.092 µM (active)	0.971 µM (active)	0.048 µM (active)	0.109 µM (active)	0.0656 µM (active)	0.499 µM (active)	0.08 µM (active)	0.0769 µM (active)
COc1cccc(-c2cc(O)c3cc(N4CCN(C)CC4)ccc3n2)c1	1.19 µM (inactive)	3.21 µM (inactive)	1.64 µM (inactive)	2.39 µM (inactive)	1.91 µM (inactive)	1.06 µM (active)	0.785 µM (active)	1.71 µM (inactive)	0.537 µM (active)	1.06 µM (active)	5.14 µM (inactive)	1.28 µM (inactive)	2.66 µM (inactive)	2.77 µM (inactive)	2.24 µM (inactive)	1.71 µM (inactive)	0.557 µM (active)
CC1=NN(C(=O)CSc2nc3ccc(I)cc3c(=O)n2Cc2ccccc2)C(=O)C1	17.2 µM (inactive)	37.1 µM (inactive)	39.6 µM (inactive)	34 µM (inactive)	21.4 µM (inactive)	22.4 µM (inactive)	25.4 µM (inactive)	43.9 µM (inactive)	33.3 µM (inactive)	36.1 µM (inactive)	65.2 µM (inactive)	26.4 µM (inactive)	31.8 µM (inactive)	33.7 µM (inactive)	34.3 µM (inactive)	27.3 µM (inactive)	35.8 µM (inactive)
Cc1cc2c(cc1C)NC1=C(O)C(c3c[nH]c4ccc(COc5ccccc5)cc34)OC1=N2 (centres undefined)	58.2 µM (inactive)	> 100 µM (inactive)	20.4 µM (inactive)	> 100 µM (inactive)	64.9 µM (inactive)	32 µM (inactive)	34.4 µM (inactive)	58.7 µM (inactive)	> 100 µM (inactive)	33.3 µM (inactive)	> 100 µM (inactive)	> 100 µM (inactive)	> 100 µM (inactive)	42.2 µM (inactive)	> 100 µM (inactive)	33.6 µM (inactive)	27.4 µM (inactive)
OC(COc1cccc2ccccc12)CN1CCOCC1 (centres undefined)	> 100 µM (inactive)	> 100 µM (inactive)	> 100 µM (inactive)	> 100 µM (inactive)	> 100 µM (inactive)	> 100 µM (inactive)	> 100 µM (inactive)	> 100 µM (inactive)	> 100 µM (inactive)	22.2 µM (inactive)	> 100 µM (inactive)	> 100 µM (inactive)	> 100 µM (inactive)	> 100 µM (inactive)	> 100 µM (inactive)	> 100 µM (inactive)	> 100 µM (inactive)
CCNC(=O)c1cc(Cl)ccc1NC(=O)C12CC3CC(CC(C3)C1)C2	23.1 µM (inactive)	28.4 µM (inactive)	30.1 µM (inactive)	37.2 µM (inactive)	> 100 µM (inactive)	> 100 µM (inactive)	34.5 µM (inactive)	> 100 µM (inactive)	25.5 µM (inactive)	30.4 µM (inactive)	42.3 µM (inactive)	–	30.3 µM (inactive)	43.6 µM (inactive)	18 µM (inactive)	52.1 µM (inactive)	> 100 µM (inactive)
Cc1n[nH]c(=O)n1/N=C/c1cccnc1	> 100 µM (inactive)	> 100 µM (inactive)	> 100 µM (inactive)	> 100 µM (inactive)	> 100 µM (inactive)	> 100 µM (inactive)	> 100 µM (inactive)	> 100 µM (inactive)	> 100 µM (inactive)	33.4 µM (inactive)	> 100 µM (inactive)	> 100 µM (inactive)	> 100 µM (inactive)	> 100 µM (inactive)	> 100 µM (inactive)	> 100 µM (inactive)	> 100 µM (inactive)
Cc1c(N2C(=O)/C(=C/c3ccc(N(CCC#N)CCC#N)cc3)N=C2c2ccccc2)c(=O)n(-c2ccccc2)n1C	> 100 µM (inactive)	> 100 µM (inactive)	> 100 µM (inactive)	> 100 µM (inactive)	> 100 µM (inactive)	> 100 µM (inactive)	> 100 µM (inactive)	> 100 µM (inactive)	96.2 µM (inactive)	> 100 µM (inactive)	> 100 µM (inactive)	> 100 µM (inactive)	> 100 µM (inactive)	> 100 µM (inactive)	> 100 µM (inactive)	> 100 µM (inactive)	> 100 µM (inactive)
COc1ccc2c(O)c3[n+](cc2c1OC)CCc1cc2c(cc1-3)OCO2	> 100 µM (inactive)	> 100 µM (inactive)	> 100 µM (inactive)	> 100 µM (inactive)	> 100 µM (inactive)	61.5 µM (inactive)	> 100 µM (inactive)	> 100 µM (inactive)	33.2 µM (inactive)	> 100 µM (inactive)	> 100 µM (inactive)	37.4 µM (inactive)	> 100 µM (inactive)	> 100 µM (inactive)	63.2 µM (inactive)	42.9 µM (inactive)	> 100 µM (inactive)
